Laboratory results: article PMC13324472, “A family of ribosome hibernation factors widespread in Archaea” (Nature Communications, 2026)

The compounds below were run against T1, HibA-CM (isolated HibA N-terminal domain, CBS module) (Pyrococcus abyssi, UniProt Q9UYR4) (assay: isothermal titration calorimetry).
T1 construct: gene PAB0961; N-terminal CBS module (residues 1-269 given as the module), made by stop codon at position 272; N-terminal His6 tag, expressed in E. coli Rosetta, Talon and Superdex 200
T1 sequence (Q9UYR4 entry or part of it): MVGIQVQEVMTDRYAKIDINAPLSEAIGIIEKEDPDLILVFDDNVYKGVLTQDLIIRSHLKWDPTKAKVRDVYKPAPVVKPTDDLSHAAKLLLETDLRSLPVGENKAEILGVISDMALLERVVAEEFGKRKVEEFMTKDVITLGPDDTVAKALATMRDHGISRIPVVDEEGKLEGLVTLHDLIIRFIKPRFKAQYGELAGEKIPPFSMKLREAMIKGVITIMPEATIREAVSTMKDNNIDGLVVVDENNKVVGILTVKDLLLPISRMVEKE
Format: binding

Row | Structure (SMILES) | Kd [µM]
1 | Nc1ncnc2c1ncn2[C@@H]1O[C@H](COP(=O)(O)OP(=O)(O)OP(=O)(O)O)[C@@H](O)[C@H]1O [ATP] | 113 ± 21
2 | Nc1ncnc2c1ncn2[C@@H]1O[C@H](COP(=O)(O)O)[C@@H](O)[C@H]1O [AMP] | 12 ± 2
3 | Nc1ncnc2c1ncn2[C@@H]1O[C@H](COP(=O)(O)OP(=O)(O)O)[C@@H](O)[C@H]1O [ADP] | 65 ± 1
